The term IC50 denotes the point on the concentration scale where inhibition reaches its midpoint. A higher IC50 goes with weaker potency.

The values that follow come from patent US10590115B2, “Tetrahydroquinazoline derivatives useful as anticancer agents” (PFIZER INC., priority 2018, dated 2020).

In test [1] the target is T1, KRAS G12C in MiaPaCa2 cells (Homo sapiens, UniProt P01116, G12C).
T1 construct: endogenous in cells; host or cells: MiaPaCa2
Kind of test: MiaPaCa2 Cell Activity Assay (Raf-1 RBD capture of active Ras, MSD). The class given is cell-based. Particulars: MIAPaCa-2 cells, 6 hours treatment; assay limit is 30.0 μM. The method, then: MiaPaCa2 Cell Activity Assay
(§1) Compounds presented in the present invention lead to the accumulation of the GDP bound Ras upon treatment of human cancer cell line.
(§2) The accumulation of the GDP-bound KRAS G12C in cellular environment was measured based on the principle that KRAS G12C only binds to its downstream kinase; Raf-1 (MAP Kinase Kinase Kinase), when in its active-GTP bound state. In this state, Ras binded to a domain of Raf-1 kinase referred to as the Ras Binding Domain (RBD).
(§3) MiaPaCa2 cells were grown in DMEM medium (Gibco 11995) supplemented with 10% fetal bovine serum and 1% penicillin/streptomycin. Cells were seeded in 96-well tissue culture plates at a density of 40,000 cells/well and allowed to attach for 16-24 hours. Test compounds were prepared as a 10 mM stock in DMSO and serially diluted in 100% DMSO using a 3-fold dilution scheme. An intermediate 5× concentrated plate in complete growth medium was made and 25 μl/well was added to the 100 μl of cells for a final concentration of 0.1% DMSO. Each concentration of exemplary compound was tested in duplicate. The negative control wells were cells with control inhibitor at 10 μM, and the positive control wells were cells without drugs, DMSO only. Plates were incubated for 6 hours at 37° C., 5% CO2. Following treatment, cells were washed 3× with ice-cold PBS and 100 μl/well ice-cold 1× Assay/Lysis. Buffer with protease inhibitors was added (25 mM HEPES, pH 7.5, 150 mM NaCl, 1% NP-40, 10 mM MgCl2, 1 mM EDTA, 2% Glycerol). Following lysis samples were frozen at −80° C.
(§4) Raf-1 RBD (LJIC-1988A1) was diluted to 100 ng/well in PBS and 5 μl/well was spot coated onto MSD high bind SECTOR plates (L15XB). Plates were incubated at room temperature for 1 hour on an orbital shaker. Plates were washed with PBS/0.05% Tween-20 and 50 μl/well of thawed lysate samples were added, followed by 50 μl of 1% MSD Blocker A in PBS/0.05% Tween-20 (R93BA). Plates were incubated for 1 hour on an orbital shaker and washed with PBS/0.05% Tween-20. 25 μl/well of Anti-pan-Ras Antibody (Cell Biolabs 244003) diluted 1:3000 was added in 1% MSD Blocker A solution and plates were incubated for 1 hour on an orbital shaker and washed with PBS/0.05% Tween-20. SULFO-TAG goat anti-mouse secondary antibody (MSD R32AC) was diluted 1:500 in MSD Blocker A solution and added at 25 μL/well. Plates were incubated for 1 hour on an orbital shaker and washed with PBS/0.05% Tween-20. 150 μl/well of Read Buffer T (MSD R92TC) diluted 1:3 in H2O was added and plates were read on a Meso Scale Discovery Sector Imager S600.
(§5) KRAS signal was normalized to maximum inhibition and DMSO control values, and IC50 values were generated using a 4 parameter fit of the dose response curve. The decrease in IC50 reflects that the exemplary compound lead to a higher level of accumulation of GDP-bound KRAS G12C than another exemplary compounds at specific timepoint of treatment of cancer cell line.

Test [2] has as its target T2, GDP-loaded kRas (1-169) G12C, C51S, C80L, C118S (Homo sapiens, UniProt P01116, C118S/C51S/C80L/G12C).
T2 construct: GDP-loaded kRas (1-169) G12C, C51S, C80L, C118S
Kind of test: Mass Spectrometry Reactivity Assay (MSRA), covalent adduct with kRas G12C. Particulars: 0.5 h at room temperature; 5 μM KRas protein; typical final concentration of the compounds 10 μM. The format is binding. How it is done:
Mass Spectrometry Reactivity Assay (MSRA)
Compounds presented in the present invention covalently bind to kRas G12C using MSRA to detect a covalent adduct of the exemplary compound and kRas G12C. GDP-loaded kRas (1-169) G12C, C51S, C80L, C118S were diluted in the protein assay buffer 25 mM Hepes pH7.5, 200 mM NaCl, 5% glycerol to concentration of 5 μM and 20 μl of protein was transferred into 96-well plate. […] See K-Ras(G12C) inhibitors allosterically control GTP affinity and effector interactions; Ostrem J M, Peters U, Sos M L, Wells J A, Shokat K M; Nature. 2013, Nov. 28; 503(7477):548-51.
Exemplary compounds dissolved in DMSO were diluted 100-fold into solution containing 20 μl of 5 μM KRas protein in the 96-well plate to initiate the reaction. Mosquito (TPP Lab tech) liquid handling robot was used to add compounds to protein solution. Typical final concentration of the compounds was 10 μM. The plates were placed on a shaker for 1 min at RT, sealed and incubated at room temperature for specified time period. 5 μl of reaction mix was added to 10 μl of 0.2% formic acid stop solution and mixed well. Typical end points were 30, 120, 600 and 1440 min.
Data were collected using Waters Acquity H-class UPLC system/Xevo G2-XS TOF mass spectrometer. The protein was injected in their liquid phase onto a Bruker Microtrap protein column TR1/15109/03. The following buffers were used to set LC gradient: Buffer A: 0.2% formic acid H20; B: 0.2% formic acid CAN. The protein was eluted from the column using the following LC Gradient: 0-0.4 min, 10% B to 30% B; 0.4 min-2.4 min, to 90% B, 2.5 min, 10% B, 3 min, 10% B. Initial data analysis was performed using MaxEnt software right after data acquisition.
The standard auto processing function was used to define percentage of unmodified and modified kRas protein using MexEnt software right after data acquisition. The highest peak was defined as 100% while smaller peak as assigned the number defined by autoprocessing function. The percent of modification corresponding to modified with exemplary compound and unmodified KRas GDP-loaded kRas (1-169) G12C, C51S, C80L, C118S were exported to Xcel data analysis software.
The percent of modified protein at the defined concentration of exemplary compound was calculated using the following formula: % mod=Num of modified peak/Sum of modified+unmodified.

A further test deals with T3, KRAS G12C in H358 cells (Homo sapiens, UniProt P01116, G12C).
T3 construct: endogenous in cells; host or cells: H358
As to the kind of experiment: H358 Cell Activity Assay (Raf-1 RBD capture of active Ras, MSD). Particulars: 6 hours treatment. The format is cell-based. How it is done: as §1, §2
as §3, with “H358” for “MiaPaCa2”, “RPMI 1640” for “DMEM”, “11875)” for “11995)”
as §4, §5

The structures appear in SMILES notation.

Consider `C=CC(=O)N1CCN(c2nc(OCCCN(C)C)nc3c2C[C@@H](C)[C@H](c2c(C)ccc4[nH]ncc24)C3)CC1` [Example C5, 1-{4-[(6R,7R)-2-[3-(dimethylamino)propoxy]-6-methyl-7-(5-methyl-1H-indazol-4-yl)-5,6,7,8-tetrahydroquinazolin-4-yl]piperazin-1-yl}prop-2-en-1-one], for which the IC50 in test [1] was determined as 0.214 µM; at KRAS G12C in H358 cells, 0.468 µM. For the same compound, the “% Modification (0.5 h)” value in test [2] turned out to be 74%.

As to `C=CC(=O)N1CCN(c2nc(OCCN(C)C)nc3c2C[C@@H](C)[C@H](c2c(C)ccc4[nH]ncc24)C3)CC1` [Example C6, 1-{4-[(6R,7R)-2-[2-(dimethylamino)ethoxy]-6-methyl-7-(5-methyl-1H-indazol-4-yl)-5,6,7,8-tetrahydroquinazolin-4-yl]piperazin-1-yl}prop-2-en-1-one], the IC50 is 0.26 µM in test [1] and 0.521 µM on KRAS G12C in H358 cells. For the same compound, the “% Modification (0.5 h)” value in test [2] was determined as 66%.

Consider `C=CC(=O)N1CCN(c2nc(OCCN(C)C)nc3c2C[C@@H](C)[C@H](c2c(Cl)c(C)cc4[nH]ncc24)C3)CC1` (relative stereo) [Example C8, 1-(4-{(6R,7R)-rel-7-(5-chloro-6-methyl-1H-indazol-4-yl)-2-[2-(dimethylamino)ethoxy]-6-methyl-5,6,7,8-tetrahydroquinazolin-4-yl}piperazin-1-yl)prop-2-en-1-one], for which the IC50 in test [1] was determined as 0.14 µM; against KRAS G12C in H358 cells it was 0.116 µM. Moreover, in test [2], the “% Modification (0.5 h)” value is 65%.

Regarding `C=CC(=O)N1CCN(c2nc(N3CC(N(C)C)C3)nc3c2C[C@@H](C)[C@H](c2c(C)ccc4[nH]ncc24)C3)CC1` (relative stereo) [Example F1, 1-{4-[(6R,7R)-rel-2-[3-(dimethylamino)azetidin-1-yl]-6-methyl-7-(5-methyl-1H-indazol-4-yl)-5,6,7,8-tetrahydroquinazolin-4-yl]piperazin-1-yl}prop-2-en-1-one], the IC50 in test [1] was determined as 0.429 µM; against KRAS G12C in H358 cells, 0.36 µM. Besides, the “% Modification (0.5 h)” value in test [2] was found to be 59%.

Consider `C=CC(=O)N1CCN(c2nc(N3CC(N(C)C)C3)nc3c2C[C@@H](C)[C@H](c2c(C)c(Cl)cc4[nH]ncc24)C3)CC1` [Example F14, 1-(4-{(6R,7R)-7-(6-chloro-5-methyl-1H-indazol-4-yl)-2-[3-(dimethylamino)azetidin-1-yl]-6-methyl-5,6,7,8-tetrahydroquinazolin-4-yl}piperazin-1-yl)prop-2-en-1-one], for which the concentration for half-maximal inhibition (IC50) in test [1] turned out to be 0.068 µM; against KRAS G12C in H358 cells, 0.102 µM. Besides, the “% Modification (0.5 h)” value in test [2] is recorded as 72%.

As for `C=CC(=O)N1CCN(c2nc(N3CC(N(C)C)C3)nc3c2C[C@@H](C)[C@H](c2c(Cl)ccc4[nH]ncc24)C3)CC1` (single isomer, unassigned) [Example F10], the IC50 in test [1] came to 0.169 µM; against KRAS G12C in H358 cells, 0.395 µM.

On to `C=CC(=O)N1CCN(c2nc(OC[C@@H]3CCCN3C)nc3c2C[C@@H](C)[C@H](c2c(C)ccc4[nH]ncc24)C3)CC1` [Example C9, 1-{4-[(6R,7R)-6-methyl-7-(5-methyl-1H-indazol-4-yl)-2-{[(2S)-1-methylpyrrolidin-2-yl]methoxy}-5,6,7,8-tetrahydroquinazolin-4-yl]piperazin-1-yl}prop-2-en-1-one], for which the results for the concentration for half-maximal inhibition (IC50) (in test [1]; on KRAS G12C in H358 cells) were 0.382 µM and 0.27 µM, respectively. In addition, the “% Modification (0.5 h)” value in test [2] is reported as 74%.

Consider `C=CC(=O)N1CCN(c2nc(N3CC(N(C)C)C3)nc3c2C[C@@H](C)[C@H](c2c(Cl)c(C)cc4[nH]ncc24)C3)C[C@H]1C` [Example F12, 1-[(2R)-4-{(6R,7R)-7-(5-chloro-6-methyl-1H-indazol-4-yl)-2-[3-(dimethylamino)azetidin-1-yl]-6-methyl-5,6,7,8-tetrahydroquinazolin-4-yl}-2-methylpiperazin-1-yl]prop-2-en-1-one], for which the results for the IC50 (in test [1]; on KRAS G12C in H358 cells) were 0.06 µM and 0.064 µM, respectively. Besides, the “% Modification (0.5 h)” value in test [2] is listed as 84%.

`C=CC(=O)N1CCN(c2nc(N3CC(CN(C)C)C3)nc3c2C[C@@H](C)[C@H](c2c(C)ccc4[nH]ncc24)C3)CC1` (relative stereo) [Example F9] returned an IC50 in test [1] of 1 µM. Besides, in test [2], the “% Modification (0.5 h)” value is recorded as 32%.
